Values after ≈ are worked out from the molar mass of the structure shown.
Experiments:
[1] = tested on: S. epidermidis ATCC 35984; experiment: MIC and MBC assays, broth dilution; assay type: cell-based; conditions: for MBC / MIC/MBC: S. epidermidis ATCC 35984; for MIC: ATCC35984, S. epidermidis ATCC 35984, MH broth
Experimental: (§1) MICs of the derivatives for S. epidermidis and S. aureus were determined by the broth dilution method according to the National Committee for Clinical Laboratory (NCCLS) recommendations (Turnidge and Bordash [2007]). Twofold dilutions of the derivatives in tubes containing 4 ml of Mueller-Hinton broth (MH, Sigma, Germany) were made to concentrations from 200 to 0.39 μM. Overnight cultures of the bacteria were adjusted to the 0.5 McFarland standards and inoculated 1:200 into the MH broth and then incubated at 37 °C for 16–20 h. The lowest concentration inhibiting visible growth of the bacteria was recorded as minimal inhibitory concentration (MIC).

[2] = tested on: S. aureus ATCC 25923; experiment: MIC, broth dilution; assay type: cell-based; conditions: Staphylococcus aureus, ATCC25923
Experimental: as §1

[3] = tested on: S. aureus ATCC 49230; experiment: MIC, broth dilution; assay type: cell-based; conditions: Staphylococcus aureus, ATCC49230
Experimental: as §1

[4] = tested on: S. epidermidis ATCC 12228; experiment: MIC, broth dilution; assay type: cell-based; conditions: Staphylococcus epidermidis, ATCC12228
Experimental: as §1

[5] = tested on: Clinical MRSE strains; experiment: MIC, broth dilution; assay type: cell-based, S. epidermidis; conditions: Staphylococcus epidermidis; Clinical MRSE strains (n = 5)
Experimental: (§2) Bacterial strains S. epidermidis ATCC 12228 (nonbiofilm forming), S. epidermidis ATCC 35984 (biofilm forming), S. aureus ATCC 49230, and S. aureus ATCC 25923 were from the American Type Culture Collection (ATCC, Manassas, USA) and were cultured in tryptic soy broth medium (TSB; Oxoid Ltd., Basingstoke, England). Ten clinical methicillin-resistant staphylococcal isolates, five MRSA isolates and five MRSE isolates, were collected from Huadong Teaching Hospital in Shanghai. Escherichia coli ATCC 25922 was grown in Luria-Bertani (LB) broth. The six compounds used in this study (H2-38, H2-39, H2-57, H2-60, H2-74, and H2-81) were screened from 56 derivatives of compound 2 in which the functional groups were modified, but the thiazolidine core structure was unchanged. The compounds were synthesized by Nanjing University of Technology. To generate the derivative compounds, halogen atoms were introduced into 4-thiazolidinone compounds that contained carboxylic acid moieties of phenoxy-acetic acid, (5-vinyl-furan-2-yl)-benzoic acid or (5-vinyl-thiophene-2-yl)-benzoic acid. The derivatives were dissolved in dimethyl sulfoxide (DMSO; Amresco, USA) to 200 mM for use as stock solutions.
as §1

[6] = tested on: Clinical MRSA strains; experiment: MIC, broth dilution; assay type: cell-based, S. aureus; conditions: Staphylococcus aureus; Clinical MRSA strains (n = 5)
Experimental: as §2, §1

[7] = tested on: E. coli ATCC 25922; experiment: MIC, broth dilution; assay type: cell-based; conditions: Escherichia coli, ATCC25922, 200 μM highest concentration used
Experimental: as §2, §1

[8] = Cytotoxicity, MTT assay; assay type: cell-based; conditions: African green monkey, Vero 76 cells
Experimental: Vero 76 cells (African green monkey cells) were used to determine the cytotoxicity of the derivatives with the Cell Proliferation Kit I (MTT) (Roche, Indianapolis, USA). The Vero cells were grown in Dulbecco’s modified Eagle’s medium (DMEM), supplemented with 5 % fetal calf serum, 100 U/ml penicillin, […] streptomycin, and 2 mM L-glutamine. After culturing in 5 % CO2 at 37 °C for 48 h, the cells were harvested and dispensed into 96-well cell culture plates containing 5 × 10^4 cells per well in 100 μl. The cells were co-incubated with serial twofold dilutions of derivatives from 200 to 6.25 μM (six different concentrations) for 24 h at 37 °C in 5 % CO2. Then, 10 μl of the MTT labeling reagent (final concentration 0.5 mg/ml) was added to each well and incubated for 4 h. The solubilization solution (100 μl per well) was added to dissolve the purple formazan salts generated in the viable cells, and the absorbance of each well was measured at 595 nm. Cells treated with the solvent (0.1 % DMSO) were used as a negative control and the cells cultured only with DMEM medium served as a blank control. The inhibitory rate was calculated as follows: Inhibitoryrate%=Ocontrol−ODtest/ODcontrol×100
CC50 was defined as the concentration of the derivatives that inhibited the Vero cell growth by 50 % and was calculated with the Origin v8.0 software (Origin Lab, Northampton, USA) (Qin et al. [2006]).

[9] = Hemolytic activity; assay type: cell-based; conditions: healthy human erythrocytes, 5 % (v/v) suspension; for hemolysis at 1 h: at MIC
Experimental: The hemolytic activities of the derivatives on healthy human erythrocytes were also determined. Healthy human erythrocytes resuspended in normal saline (NS) at 5 % (v/v) were co-incubated with the derivatives at final concentrations of MIC, 4 × MIC, or 200 μM for 1 h at 37 °C in 96-well microtiter plates. The suspensions were centrifuged at 350 g for 10 min and the supernatant (100 μl) was transferred to new wells and measured at 570 nm on a spectrophotometer (Benchmark Microplate Reader; Bio-Rad, Hercules, CA, USA). The percentage of hemolysis was calculated by normalizing against the absorbance of erythrocytes treated with 1 % Triton X-100, which caused complete hemolysis; 0.1 % DMSO-treated cells were used as a control (Miyoshi et al. [1997]). The experiment was performed in quadruplicate wells and repeated independently three times.

[10] = tested on: S. epidermidis ATCC 35984; experiment: Kinetics of killing planktonic S. epidermidis; assay type: cell-based; conditions: for effect on growth in initial treatment phase: 1/4MIC (0.38 μM) and 1/2MIC (0.75 μM), 2 to 6 h
Experimental: An overnight culture of S. epidermidis ATCC 35984 was inoculated into 20 ml of fresh MH broth at a 1:200 dilution (10^6 CFU/ml). […] Every 2 h, 100 μl of the culture was diluted and spread on agar plates. Viable bacteria (CFU) were counted and the rate and extent of killing were determined by plotting CFU/ml against time (D’Arezzo et al. [2012]; Lee et al. [2008]). This experiment was independently repeated three times.

[11] = Staphylococcus epidermidis, ATCC35984

| Structure (SMILES) | MBC [1] [µM] | MIC/MBC [1] | MIC ([1]; Staphylococcus epidermidis) [µM] | MBC [1, 11] [µM] | MIC [2] [µM] | MIC [3] [µM] | MIC [4] [µM] | MIC [5] [µM] | MIC [6] [µM] | MIC [7] [µM] | CC50 at 24 h [8] [µM] | hemolysis at 1 h, 200 µM [9] [%] | hemolysis at 1 h [9] [%] | effect on growth in initial treatment phase [10] | viable cells ([10]; 2 × MIC (3.1 μM), 12 h) | viable cells ([10]; 4 × MIC (6.3 μM), 10 h) | CFU remaining ([10]; 4 × MIC, 10 h, as restated in discussion) |
| --- | --- | --- | --- | --- | --- | --- | --- | --- | --- | --- | --- | --- | --- | --- | --- | --- | --- |
| CCc1ccccc1/N=C1\S/C(=C\c2ccc(OCC(=O)O)c(OC)c2)C(=O)N1c1ccccc1CC [Compound 2, {2-{4-{3-(2-ethylphenyl)-2-[(2-ethylphenyl)imino]-4-oxothiazolidin-5-ylidene}methyl}-2-methoxyphenoxy}acetic acid] | 100.0 (≈ 51.7 µg/mL) | 1/4 | 25 (≈ 12.9 µg/mL) | 100 (≈ 51.7 µg/mL) | 50 (≈ 25.8 µg/mL) | 50 (≈ 25.8 µg/mL) | 25 (≈ 12.9 µg/mL) | 25 to 50 (≈ 12.9 to 25.8 µg/mL) | 25 to 50 (≈ 12.9 to 25.8 µg/mL) | > 200 | 50 | 5.24 ± 0.21 | 2.31 ± 0.35 |  |  |  |  |
| O=C(O)c1cccc(-c2ccc(C=C3SC(=Nc4ccc(Cl)cc4)N(c4ccc(Cl)cc4)C3=O)o2)c1 [H2-38, 3-{5-{{3-(4-chlorophenyl)-2-[(4-chlorophenyl)imino]-4-oxothiazolidin-5-ylidene}methyl}furan-2-yl}benzoic acid] |  | 1/8 |  | 12.5 (≈ 6.69 µg/mL) | 1.5 (≈ 0.803 µg/mL) | 1.5 (≈ 0.803 µg/mL) | 1.5 (≈ 0.803 µg/mL) | 1.5 to 3.1 (≈ 0.803 to 1.66 µg/mL) | 1.5 to 3.1 (≈ 0.803 to 1.66 µg/mL) | > 200 | > 200 | 0.28 ± 0.03 | 0.14 ± 0.03 |  |  |  |  |
| O=C(O)c1ccc(-c2ccc(C=C3SC(=Nc4ccc(Cl)cc4)N(c4ccc(Cl)cc4)C3=O)o2)cc1 [H2-39, 4-{5-{{3-(4-chlorophenyl)-2-[(4-chlorophenyl)imino]-4-oxothiazolidin-5-ylidene}methyl}furan-2-yl}benzoic acid] |  | 1/8 |  | 12.5 (≈ 6.69 µg/mL) | 1.5 (≈ 0.803 µg/mL) | 1.5 (≈ 0.803 µg/mL) | 1.5 (≈ 0.803 µg/mL) | 1.5 to 3.1 (≈ 0.803 to 1.66 µg/mL) | 1.5 to 3.1 (≈ 0.803 to 1.66 µg/mL) | > 200 | > 200 | 0.41 ± 0.05 | 0.12 ± 0.03 |  |  |  |  |
| O=C(O)c1ccc(-c2ccc(/C=C3\S/C(=N\c4ccccc4)N(c4ccc(Cl)cc4)C3=O)o2)cc1 [H2-57, 4-{5-{{3-(4-chlorophenyl)-2-[(4-phenyl)imino]-4-oxothiazolidin-5-ylidene}methyl}furan-2-yl}benzoic acid] |  | 1/4 | ≤ 3.1 | 12.5 (≈ 6.26 µg/mL) | 3.1 (≈ 1.55 µg/mL) | 1.5 (≈ 0.751 µg/mL) | 3.1 (≈ 1.55 µg/mL) | 1.5 to 3.1 (≈ 0.751 to 1.55 µg/mL) | 1.5 to 3.1 (≈ 0.751 to 1.55 µg/mL) | > 200 | > 200 | 0.16 ± 0.04 | 0.14 ± 0.03 |  |  |  |  |
| O=C(O)c1ccc(-c2ccc(C=C3SC(=Nc4ccc(F)cc4)N(c4ccc(F)cc4)C3=O)s2)cc1 [H2-60, 4-{5-{{3-(4-fluorophenyl)-2-[(4-fluorophenyl)imino]-4-oxothiazolidin-5-ylidene}methyl}thiophene-2-yl}benzoic acid] |  | 1/8 |  | 12.5 (≈ 6.48 µg/mL) | 1.5 (≈ 0.778 µg/mL) | 1.5 (≈ 0.778 µg/mL) | 1.5 (≈ 0.778 µg/mL) | 1.5 to 3.1 (≈ 0.778 to 1.61 µg/mL) | 1.5 to 3.1 (≈ 0.778 to 1.61 µg/mL) | > 200 | > 200 | 0.84 ± 0.03 | 0.52 ± 0.06 |  |  |  |  |
| O=C(O)COc1ccc(C=C2SC(=Nc3ccc(Cl)cc3)N(c3ccc(Cl)cc3)C2=O)cc1 [H2-74, 2-{4-{[3-(4-chlorophenyl)-2-[(4-chlorophenyl)imino]-4-oxothiazolidin-5-ylidene}methyl}phenoxy}acetic acid] |  | 1/16 |  | 25 (≈ 12.5 µg/mL) | 3.1 (≈ 1.55 µg/mL) | 1.5 (≈ 0.749 µg/mL) | 1.5 (≈ 0.749 µg/mL) | 3.1 to 6.3 (≈ 1.55 to 3.15 µg/mL) | 3.1 to 6.3 (≈ 1.55 to 3.15 µg/mL) | > 200 | > 200 | 0.42 ± 0.03 | 0.14 ± 0.03 | inhibited the growth of S. epidermidis | 3.2 × 10^3 CFU/ml | more than 3.1 × 10^2 CFU/ml |  |
| O=C(O)c1ccc(-c2ccc(/C=C3\S/C(=N\c4ccccc4)N(c4ccc(F)cc4)C3=O)s2)cc1 [H2-81, 4-{5-{{3-(4-fluorophenyl)-2-[(4-phenyl)imino]-4-oxothiazolidin-5-ylidene}methyl}thiophene-2-yl}benzoic acid] |  | 1/4 |  | 6.3 (≈ 3.15 µg/mL) | 1.5 (≈ 0.751 µg/mL) | 1.5 (≈ 0.751 µg/mL) | 1.5 (≈ 0.751 µg/mL) | 1.5 (≈ 0.751 µg/mL) | 1.5 (≈ 0.751 µg/mL) | > 200 | > 200 | 0.1 ± 0.03 | 0.06 ± 0.09 | inhibited the growth of S. epidermidis | less than 3 × 10^2 CFU/ml | < 10 CFU/ml | ~ 10 CFU |

Reference: article PMC4057637, “Efficacy of novel antibacterial compounds targeting histidine kinase YycG protein” (Applied Microbiology and Biotechnology, 2014)
